Source: patent US8859508B2, “Application of 5-methyl-1,3-benzenediol or derivatives thereof in the preparation of medicines and functional foods for treatment or prevention of depression” (Kunming Institute of Botany, Chinese Academy of Sciences, priority 2007, dated 2014)

How the values were obtained:
rats [1] = assay: Conditioned fear stress-induced freezing behavior test in rats; assay type: in vivo, rat; conditions: i.p. 24 h and 5 h before footshocks, re-exposure 24 h later
Procedure: (§1) Kunming mice (Certificate Number: A4CXK(Chuan)2003-16) from the Institute of Experimental Animals, People's Hospital of Sichuan Province, were used. They were 3-4 weeks old at the beginning of the experiment and weighed 25-30 g. ORG was prepared as described in Example 1. Animals were divided into drug administration groups with different doses of ORG, a vehicle control group, and a diazepam group (Jinyao Ltd. Co., Batch No. 106k1588) as positive control.
(§2) Footshock-induced freezing behavior: Animals received an i.p. injection of ORG or vehicle 24 h and 5 h before being placed in a standard conditioning chamber (Med Associates, USA) for a 10 min training session. Two, 4, 6, 8, and 10 min after the onset of the session, a footshock (0.8 mA, 2 s) was delivered through the grid floor of the chamber. The freezing time during the last 5 min were recorded. Rats were placed in the chamber again without footshock 24 h after the first training, and the freezing time was recorded.
(§3) Data analysis: The results of the test are expressed as mean±SEM. One-way ANOVA was used followed by the LSD test with SPSS 11 software. The significance level was set at P<0.05.

Kunming mice [2] = assay: Tail suspension test (TST) in mice
DD model mice = assay: TST in constant darkness (DD) model mice; assay type: in vivo, mouse; conditions: for Immobility time (s) (mean ± SEM): oral once a day for 1 week
Procedure: as §1, with “experiments” for “experiment”, “experimental” for “drug administration”, “doses,” for “doses of ORG, a”, “groups,” for “group,”, “an imipramine” for “a diazepam”, “(Sigma,” for “(Jinyao Ltd. Co.,”
DD model in mice: Mice were kept under 24 h continuous dark conditions. The replacement of padding, addition of food and water, and other operations were undertaken in the condition that the intensity of red light was less than 1.0 lux. The period of this condition lasted for 28 days. In the last week, ORG was administered orally once a day for 1 week. The FST and TST were carried out 30 min after the last administration. Methods and data analysis were as described above.

CMS model mice = assay: TST in chronic unpredictable mild stress (CMS) model mice; assay type: in vivo, mouse; conditions: for Immobility time (s) (mean ± SEM): oral once a day for 7 days
Procedure: as §1, with “experiments” for “the experiment”, “experiment” for “drug administration”, “doses,” for “doses of ORG,”, “an imipramine” for “a diazepam”, “(Sigma,” for “(Jinyao Ltd. Co.,”
CMS model: The chronic mild stresses that Kunming mice were subjected to were reversal of circadian rhythm, continuous light, cold, damp bedding, tilt cages, food and water restriction, and restraint. […] The stress period lasted for 8 weeks. In the last week, ORG was administered orally once a day for 7 consecutive days. The behavioral test was carried out 30 min after the last administration. The parameter tested was immobility time in the FST and TST in the CMS model mice. The methods of FST and TST and data analysis were as described above.

serum corticosterone = assay: Serum corticosterone level (radioimmunoassay), non-stressed and elevated platform stressed rats; assay type: in vivo, rat
rats [3] = assay: Footshock-induced freezing behavior test in rats; assay type: in vivo, rat; conditions: i.p. 24 h and 5 h before test
Procedure: as §1, §2, §3

Kunming mice [4] = assay: Forced swim test (FST) in mice

## Cc1cc(O)cc(OC2OC(CO)C(O)C(O)C2O)c1 [ORG, orcinol-1-O-β-D-glucopyranoside]
Rats [1]; 5 mg/kg
  Duration of freezing (s) (mean ± SEM): 310.30 ± 66.19 s
Rats [1]; 20 mg/kg
  Duration of freezing (s) (mean ± SEM): 95.00 ± 17.73 s
Kunming mice [2]; Mus musculus
  ED50: ~0.73 mg/kg
Kunming mice [2]; TST mice, ORG i.g. 24 h and 5 h before test
  dose of the best efficacy: 12 mg/kg
Kunming mice [2]; TST mice, i.g. 24 h and 5 h before test, 0.1875 mg/kg
  Immobility time (s) (mean ± SEM): 161.70 ± 6.89 s
Kunming mice [2]; TST mice, i.g., 0.375 mg/kg
  Immobility time (s) (mean ± SEM): 155.68 ± 6.77 s
Kunming mice [2]; TST mice, i.g., 0.5 mg/kg
  Immobility time (s) (mean ± SEM): 125.30 ± 6.93 s
Kunming mice [2]; TST mice, i.g., 0.75 mg/kg
  Immobility time (s) (mean ± SEM): 117.33 ± 6.56 s
Kunming mice [2]; TST mice, i.g., 1.5 mg/kg
  Immobility time (s) (mean ± SEM): 109.27 ± 6.81 s
Kunming mice [2]; TST mice, i.g., 3 mg/kg
  Immobility time (s) (mean ± SEM): 98.07 ± 5.95 s
Kunming mice [2]; TST mice, i.g., 6 mg/kg
  Immobility time (s) (mean ± SEM): 89.73 ± 5.02 s
Kunming mice [2]; TST mice, i.g., 12 mg/kg
  Immobility time (s) (mean ± SEM): 77.67 ± 5.33 s
Kunming mice [2]; TST mice, i.g., 24 mg/kg
  Immobility time (s) (mean ± SEM): 91.03 ± 7.44 s
Kunming mice [2]; TST mice, i.g., 48 mg/kg
  Immobility time (s) (mean ± SEM): 100.20 ± 10.46 s
Kunming mice [2]; TST mice, i.g., 96 mg/kg
  Immobility time (s) (mean ± SEM): 107.68 ± 8.85 s
Kunming mice [2]; mice, TST
  therapeutic index (TI) = TD50÷ED50: > 2397
DD model mice; DD mice
  therapeutic index = TD50÷ED50: > 1000
DD model mice; DD mice, 5 mg/kg
  Immobility time (s) (mean ± SEM): 146.30 ± 11.66 s
DD model mice; DD mice, 10 mg/kg
  Immobility time (s) (mean ± SEM): 145.31 ± 12.41 s
DD model mice; DD mice, 20 mg/kg
  Immobility time (s) (mean ± SEM): 140.69 ± 14.138 s
DD model mice; DD mice, test 30 min after last dose, 1.25 mg/kg
  Immobility time (s) (mean ± SEM): 171.20 ± 13.02 s
DD model mice; DD model mice, ORG oral
  dose of the best efficacy: 20 mg/kg
DD model mice; Mus musculus, DD model mice, ORG oral
  ED50: ~1.75 mg/kg
CMS model mice; CMS mice
  therapeutic index (TI) = TD50÷ED50: > 415
CMS model mice; CMS mice, 5 mg/kg
  Immobility time (s) (mean ± SEM): 146.30 ± 11.66 s
CMS model mice; CMS mice, 10 mg/kg
  Immobility time (s) (mean ± SEM): 145.31 ± 12.41 s
CMS model mice; CMS mice, 20 mg/kg
  Immobility time (s) (mean ± SEM): 140.69 ± 14.14 s
CMS model mice; CMS mice, test 30 min after last dose, 1.25 mg/kg
  Immobility time (s) (mean ± SEM): 171.20 ± 13.02 s
CMS model mice; CMS model mice, ORG oral
  best dose for the antidepressant effect: 20 mg/kg
CMS model mice; Mus musculus, CMS model mice, ORG oral
  ED50: ~4.22 mg/kg
Serum corticosterone; non-stress rats, i.p., 3.5 mg/kg
  Concentration of serum corticosterone (ng/ml) (mean ± SEM): 166.06 ± 41.90 ng/mL
Serum corticosterone; non-stress rats, i.p., 14 mg/kg
  Concentration of serum corticosterone (ng/ml) (mean ± SEM): 70.04 ± 14.75 ng/mL
Serum corticosterone; non-stress rats, i.p., 28 mg/kg
  Concentration of serum corticosterone (ng/ml) (mean ± SEM): 63.13 ± 22.21 ng/mL
Serum corticosterone; non-stress rats, i.p., blood 1 h after injection, 0.875 mg/kg
  Concentration of serum corticosterone (ng/ml) (mean ± SEM): 209.02 ± 52.77 ng/mL
Serum corticosterone; stress rats (elevated platform 30 min, 1 h after i.p. injection), 0.875 mg/kg
  Concentration of serum corticosterone (ng/ml) (mean ± SEM): 349.85 ± 61.75 ng/mL
Serum corticosterone; stress rats, i.p., 3.5 mg/kg
  Concentration of serum corticosterone (ng/ml) (mean ± SEM): 263.63 ± 49.14 ng/mL
Serum corticosterone; stress rats, i.p., 14 mg/kg
  Concentration of serum corticosterone (ng/ml) (mean ± SEM): 237.63 ± 32.45 ng/mL
Serum corticosterone; stress rats, i.p., 28 mg/kg
  Concentration of serum corticosterone (ng/ml) (mean ± SEM): 137.41 ± 26.84 ng/mL
Rats [3]; 5 mg/kg
  Duration of freezing (s) (mean ± S.E.): 203.90 ± 34.09 s
Rats [3]; 20 mg/kg
  Duration of freezing (s) (mean ± S.E.): 100.70 ± 21.78 s
Kunming mice [4]; FST mice, ORG i.g. 24 h and 5 h before test
  dose of the best efficacy: 3 mg/kg
Kunming mice [4]; FST mice, i.g. 24 h and 5 h before test, 0.093 mg/kg
  Immobility time (s) (mean ± SEM): 169.35 ± 4.32 s
Kunming mice [4]; FST mice, i.g., 0.186 mg/kg
  Immobility time (s) (mean ± SEM): 155.30 ± 9.19 s
Kunming mice [4]; FST mice, i.g., 0.3725 mg/kg
  Immobility time (s) (mean ± SEM): 137.57 ± 6.41 s
Kunming mice [4]; FST mice, i.g., 0.75 mg/kg
  Immobility time (s) (mean ± SEM): 139.45 ± 7.04 s
Kunming mice [4]; FST mice, i.g., 1.5 mg/kg
  Immobility time (s) (mean ± SEM): 127.23 ± 6.63 s
Kunming mice [4]; FST mice, i.g., 3 mg/kg
  Immobility time (s) (mean ± SEM): 114.41 ± 6.23 s
Kunming mice [4]; FST mice, i.g., 6 mg/kg
  Immobility time (s) (mean ± SEM): 129.76 ± 5.99 s
Kunming mice [4]; FST mice, i.g., 12 mg/kg
  Immobility time (s) (mean ± SEM): 122.71 ± 5.56 s
Kunming mice [4]; FST mice, i.g., 24 mg/kg
  Immobility time (s) (mean ± SEM): 121.57 ± 6.13 s
Kunming mice [4]; FST mice, i.g., 48 mg/kg
  Immobility time (s) (mean ± SEM): 135.36 ± 4.60 s
Kunming mice [4]; FST mice, i.g., 96 mg/kg
  Immobility time (s) (mean ± SEM): 145.34 ± 5.39 s
Kunming mice [4]; FST mice, oral 3 mg/kg twice in 24 h, recorded 5 h after last treatment (Table 7)
  Immobility (% NS) (mean ± SEM): 64.03 ± 7.20 % NS
Kunming mice [4]; FST mice, oral 3 mg/kg twice, 19 h apart
  onset of antidepressant effect after the second administration: 2.5 h
Kunming mice [4]; FST mice, oral 3 mg/kg twice, 19 h apart, time after second administration
  maintenance of antidepressant effect: at least 72 h
Kunming mice [4]; FST mice, oral 3 mg/kg, 1 administration in 24 h, recorded 5 h after last treatment
  Immobility (% NS) (mean ± SEM): 83.57 ± 6.66 % NS
Kunming mice [4]; FST mice, oral 3 mg/kg, 2 administrations in 24 h, recorded 5 h after last treatment (Table 6)
  Immobility (% NS) (mean ± SEM): 64.98 ± 5.96 % NS
Kunming mice [4]; FST mice, oral 3 mg/kg, 3 administrations in 24 h, recorded 5 h after last treatment
  Immobility (% NS) (mean ± SEM): 65.65 ± 9.67 % NS
Kunming mice [4]; FST mice, oral 3 mg/kg, 4 administrations in 24 h, recorded 5 h after last treatment
  Immobility (% NS) (mean ± SEM): 89.81 ± 6.50 % NS
Kunming mice [4]; FST mice, oral 3 mg/kg, 5 administrations in 24 h, recorded 5 h after last treatment
  Immobility (% NS) (mean ± SEM): 91.26 ± 5.93 % NS
Kunming mice [4]; FST mice, oral 6 mg/kg once in 24 h, recorded 5 h after treatment (Table 7)
  Immobility (% NS) (mean ± SEM): 80.70 ± 4.64 % NS
Kunming mice [4]; FST mice, oral, dose 6 mg/kg (3 mg/kg twice, 19 h apart), 2 weeks after last administration
  Immobility (% NS) (mean ± SEM): 99.54 ± 5.54 % NS
Kunming mice [4]; FST mice, oral, dose 6 mg/kg (3 mg/kg twice, 19 h apart), 2.5 h after last administration
  Immobility (% NS) (mean ± SEM): 73.63 ± 4.21 % NS
Kunming mice [4]; FST mice, oral, dose 6 mg/kg (3 mg/kg twice, 19 h apart), 5 h after last administration
  Immobility (% NS) (mean ± SEM): 71.92 ± 6.05 % NS
Kunming mice [4]; FST mice, oral, dose 6 mg/kg (3 mg/kg twice, 19 h apart), 24 h after last administration
  Immobility (% NS) (mean ± SEM): 62.83 ± 6.59 % NS
Kunming mice [4]; FST mice, oral, dose 6 mg/kg (3 mg/kg twice, 19 h apart), 72 h after last administration
  Immobility (% NS) (mean ± SEM): 77.33 ± 6.07 % NS
Kunming mice [4]; Mus musculus
  ED50: ~0.22 mg/kg
Kunming mice [4]; mice, FST
  therapeutic index (TI) = TD50÷ED50: > 7955
